Test [1] relates to MCF-10A. The test can be described thus: cells. The settings on record: Homo sapiens.
Description: Antiproliferation activity against human MCF-10A cells assessed as reduction in cell viability under hypoxic conditions by MTT assay
The subject of test [2] is MCF7. The test can be described thus: Antiproliferation activity against human MCF7 cells assessed as reduction in cell viability under hypoxic conditions by MTT assay.
Test [3] addresses Carbonic anhydrase 9 (Homo sapiens, UniProt Q16790). The test can be described thus: Inhibition of recombinant human carbonic anhydrase 9 by stopped-flow CO2 hydration assay.
Test [4] deals with Carbonic anhydrase 1 (Homo sapiens, UniProt P00915). The experiment in a line: Inhibition of recombinant human carbonic anhydrase 1 by stopped-flow CO2 hydration assay.
Sequence of Carbonic anhydrase 1 (P00915 whole entry): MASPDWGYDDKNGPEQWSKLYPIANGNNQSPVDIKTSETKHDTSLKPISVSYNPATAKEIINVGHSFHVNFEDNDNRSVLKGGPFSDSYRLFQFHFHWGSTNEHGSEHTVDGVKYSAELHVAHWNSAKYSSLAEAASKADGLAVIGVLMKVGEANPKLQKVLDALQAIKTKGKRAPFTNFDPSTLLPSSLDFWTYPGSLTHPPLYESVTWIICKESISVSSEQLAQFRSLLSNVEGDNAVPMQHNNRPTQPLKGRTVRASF
In test [5] the target is Carbonic anhydrase 4 (Homo sapiens, UniProt P22748). The test can be described thus: Inhibition of recombinant human carbonic anhydrase 4 by stopped-flow CO2 hydration assay.
Sequence of Carbonic anhydrase 4 (P22748 whole entry): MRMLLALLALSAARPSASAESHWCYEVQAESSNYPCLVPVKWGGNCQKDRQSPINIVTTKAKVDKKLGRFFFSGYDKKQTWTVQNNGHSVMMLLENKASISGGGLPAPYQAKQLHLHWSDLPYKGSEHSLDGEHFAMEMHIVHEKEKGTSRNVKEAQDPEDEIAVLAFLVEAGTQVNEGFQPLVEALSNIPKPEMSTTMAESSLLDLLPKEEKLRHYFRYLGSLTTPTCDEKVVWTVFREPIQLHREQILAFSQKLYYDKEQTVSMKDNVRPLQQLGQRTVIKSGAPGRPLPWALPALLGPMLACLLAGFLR
For test [6], the target named is Carbonic anhydrase 2 (Homo sapiens, UniProt P00918). The test can be described thus: Inhibition of recombinant human carbonic anhydrase 2 by stopped-flow CO2 hydration assay.

A value given as a limit tells only on which side of the number the result lay.

The values that follow come from ChEMBL document CHEMBL4842321, “Novel benzenesulfonamides aryl and arylsulfone conjugates adopting tail/dual tail approaches: Synthesis, carbonic anhydrase inhibitory activity and molecular modeling studies” (Eur J Med Chem, 2021).

Regarding `NS(=O)(=O)c1ccc(N/N=C(/CS(=O)(=O)c2ccccc2)c2ccc(Br)cc2)cc1`, the IC50 (as a rule, the concentration that inhibits the measured activity by half) came to 12.9 µM in test [1] and 17.3 µM in test [2]. In test [3], the Ki (in general, the equilibrium dissociation constant of an inhibitor or competing ligand from its target) amounted to 0.909 µM.

For `C/C(=N/NC(=O)c1ccc(S(N)(=O)=O)cc1)c1ccccc1`, the IC50 in test [1] came out at 31.1 µM; in test [2], 20.1 µM. In addition, in test [3], the Ki was determined as 0.322 µM.

Turning to `C/C(=N/NC(=O)c1ccc(S(N)(=O)=O)cc1)c1ccc(F)cc1`, the IC50 in test [1] amounted to 22 µM; in test [2], 31.9 µM. For the same compound, the Ki in test [3] stood at 1.45 µM.

In the case of `NS(=O)(=O)c1ccc(N/C=C(\C(=O)c2ccc(Cl)cc2)S(=O)(=O)c2ccccc2)cc1`, the IC50 in test [1] amounted to 28 µM; in test [2], 15.1 µM. The inhibition constant Ki in test [3] is 3.01 µM.

Turning to `NS(=O)(=O)c1ccc(C(=O)N/N=C(/CS(=O)(=O)c2ccccc2)c2ccc(Br)cc2)cc1`, the IC50 in test [1] was determined as 34.1 µM; in test [2], 19.1 µM. Moreover, the Ki in test [3] stood at 0.289 µM.

Turning to `NS(=O)(=O)c1ccc(C(=O)N/N=C\c2ccccc2)cc1`, the figures for the IC50 in test [1] and in test [2] were 39.4 µM and 14.9 µM, respectively. In addition, the Ki in test [3] is 0.869 µM.

With `NS(=O)(=O)c1ccc(N/C=C(\C(=O)c2ccccc2)S(=O)(=O)c2ccccc2)cc1`, the figures for the IC50 in test [1] and in test [2] were 17.9 µM and 3.44 µM, respectively. Also, the Ki in test [3] came to 2.76 µM.

As for `NS(=O)(=O)c1ccc(C(=O)N/N=C\c2ccc(F)cc2)cc1`, the 50% inhibitory concentration (IC50) in test [1] worked out at 35.9 µM; in test [2], 9.17 µM. Also, in test [3], the Ki was found to be 2.37 µM.

With `NS(=O)(=O)c1ccc(N/N=C(/CS(=O)(=O)c2ccccc2)c2ccc(Cl)cc2)cc1`, the IC50 is 28.6 µM in test [1] and 8.01 µM in test [2]. For the same compound, in test [3], the inhibition constant (Ki) worked out at 2.91 µM.

On to `O=C(O)c1ccc(N/N=C(/CS(=O)(=O)c2ccccc2)c2ccc(Cl)cc2)cc1`, for which the Ki in test [4] and in test [3] was > 100 µM in each case.

Take `C/C(=N/NC(=O)c1ccc(S(N)(=O)=O)cc1)c1ccc(Br)cc1`: the IC50 was determined as 37.6 µM in test [1] and 2.29 µM in test [2]. Also, in test [3], the Ki was found to be 0.962 µM.

On to `O=C(O)c1ccc(N/N=C(\C(=O)c2ccccc2)S(=O)(=O)c2ccccc2)cc1`, for which the Ki in test [4], in test [5], in test [6] and in test [3] was > 100 µM in each case.

As to `NS(=O)(=O)c1ccc(C(=O)N/N=C(/CS(=O)(=O)c2ccccc2)c2ccc(Cl)cc2)cc1`, the IC50 in test [1] worked out at 25.6 µM; in test [2] it was 57 µM. Moreover, in test [3], the Ki is 0.818 µM.

For the compound `O=C(O)c1ccc(N/C=C(\C(=O)c2ccccc2)S(=O)(=O)c2ccccc2)cc1`, the inhibition constant (Ki) in test [4], in test [5], in test [6] and in test [3] was > 100 µM each time.

`NS(=O)(=O)c1ccc(C(=O)N/N=C\c2ccc(Br)cc2)cc1`: the IC50 in test [1] stood at 27.7 µM; in test [2], 1.37 µM. In addition, in test [3], the inhibitory constant (Ki) is 2.21 µM.

Turning to `NS(=O)(=O)c1ccc(N/N=C(\C(=O)c2ccccc2)S(=O)(=O)c2ccccc2)cc1`, the IC50 in test [1] came out at 14.1 µM; in test [2], 1.74 µM. For the same compound, the Ki in test [3] is 1.61 µM.

Regarding `O=C(O)c1ccc(N/C=C(\C(=O)c2ccc(Cl)cc2)S(=O)(=O)c2ccccc2)cc1`, the Ki in test [4], in test [5], in test [6] and in test [3] was > 100 µM throughout.

In the case of `O=C(O)c1ccc(N/N=C(/CS(=O)(=O)c2ccccc2)c2ccc(Br)cc2)cc1`, the Ki in test [4], in test [5], in test [6] and in test [3] was > 100 µM in each case.

With `NS(=O)(=O)c1ccc(C(=O)N/N=C(/CS(=O)(=O)c2ccccc2)c2ccccc2)cc1`, the 50% inhibitory concentration (IC50) in test [1] worked out at 84.8 µM; in test [2], 10.7 µM. For the same compound, the Ki in test [3] is 0.769 µM.

As for `O=C(O)c1ccc(N/C=C(\C(=O)c2ccc(Br)cc2)S(=O)(=O)c2ccccc2)cc1`, the Ki in test [4], in test [5] and in test [3] was > 100 µM each time.

Regarding `NS(=O)(=O)c1ccc(C(=O)N/N=C(/CS(=O)(=O)c2ccccc2)c2ccc(F)cc2)cc1`, the IC50 in test [1] came to 63.7 µM; in test [2] it was 0.62 µM. The inhibitory constant (Ki) in test [3] stood at 1.12 µM.

`NS(=O)(=O)c1ccc(N/C=C(\C(=O)c2ccc(Br)cc2)S(=O)(=O)c2ccccc2)cc1`: the half-maximal inhibitory concentration (IC50) came to 20.4 µM in test [1] and 62.7 µM in test [2]. In test [3], the Ki is 3.03 µM.

On to `C/C(=N/NC(=O)c1ccc(S(N)(=O)=O)cc1)c1ccc(Cl)cc1`, for which the IC50 was determined as 62.7 µM in test [1] and 3.75 µM in test [2]. In addition, the Ki in test [3] worked out at 0.319 µM.

Consider `O=C(O)c1ccc(N/N=C(/CS(=O)(=O)c2ccccc2)c2ccccc2)cc1`, for which the inhibition constant (Ki) in test [5] and in test [3] was > 100 µM throughout.

For the compound `NS(=O)(=O)c1ccc(N/N=C(/CS(=O)(=O)c2ccccc2)c2ccccc2)cc1`, the values for the IC50 in test [1] and in test [2] were 46.1 µM and 3.97 µM, respectively. Besides, the Ki in test [3] came to 2.49 µM.

With `O=c1[nH]cc(F)c(=O)[nH]1` [FLUOROURACIL], the IC50 in test [1] came to 17.2 µM; in test [2] it was 12.5 µM.

For `NS(=O)(=O)c1ccc(C(=O)N/N=C\c2ccc(Cl)cc2)cc1`, the IC50 was found to be 82 µM in test [1] and 36.7 µM in test [2]. Moreover, the inhibition constant Ki in test [3] is 2.09 µM.
